Key:
[1] = tested on: hairless mice (Hos: HR-1); assay: Water content of the skin (Corneometer) after oral administration, animal test; assay type: in vivo; conditions: three weeks, positive control
Experimental: (§1) A skin-beautifying effect of milk-derived phospholipid was evaluated using the compositions containing milk-derived phospholipid obtained in Examples 1 and 2. In experiments 13-week-old hairless mice (Hos: HR-1) were used. […] A water content and TEWL of the skin of the tail and the base of the tail of the mice were measured at the initiation of the test and the completion of the test. Values obtained at the completion of the test were calculated by setting each value obtained at the initiation of the test as 100, and the obtained values were provided as a rate of increase. A water content of the skin and TEWL were measured with a Corneometer and a Tewameter manufactured by Courage +Khazaka electronic GmbH, respectively.

[2] = tested on: hairless mice (Hos: HR-1); assay: TEWL of the skin (Tewameter) after oral administration, animal test; assay type: in vivo; conditions: three weeks, positive control
Experimental: as §1

[3] = 3 mg sphingomyelin per kg body weight, oral once daily, value at initiation = 100

## sphingomyelin
[1]; [3]
  Rate of water content increase: 124%
[1]; 3 mg/kg sphingomyelin solely
  water content of the skin, times as much as the water content of the skin of group A: 1.25 times
[2]; [3]
  Rate of TEWL increase: 86%
[2]; 3 mg/kg sphingomyelin solely
  TEWL, times that of group A: 0.85 times
